Assay in all cases: NCI tumour cell line growth inhibition, 48 h
The test system of assay [1] is CCRF-CEM leukemia.
Assay [2] has as its system DU-145 prostate.
The subject of assay [3] is HCT-116 colon.
Assay [4] deals with HCT-15 colon.
For assay [5], the system named is IGROV1 ovarian.
In assay [6] the test system is K-562 leukemia.
In assay [7] the test system is KM12 colon.
In assay [8] the test system is MDA-MB-231 breast.
The subject of assay [9] is NCI-H23 lung.
Assay [10] relates to PC-3 prostate.
In assay [11] the test system is RPMI-8226 leukemia.
Assay [12] deals with RXF 393 renal.
The subject of assay [13] is SF-268 CNS.
Assay [14] has as its system SF-295 CNS.
The subject of assay [15] is SF-539 CNS.
Assay [16] has as its system SK-OV-3 ovarian.
The test system of assay [17] is SNB-19 CNS.
Assay [18] concerns TK-10 renal.

The record followed here is PubChem BioAssay (NCI).

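Briefly, cells in 96-well plates were exposed to five compound concentrations for 48 h, and endpoints were estimated by linear interpolation. TGI: total growth inhibition.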 Some results are limits rather than exact numbers.

For the compound `COC(=O)C(N)CCCC(N)C(=O)NC(C)C(=O)NC(CCC(=O)NCCNCCNc1c2ccccc2nc2cccc([N+](=O)[O-])c12)C(N)=O` (stereo not given), the TGI in [1] is above 50.9 µM; in assay [2] it was above 66.1 µM; in [3], 24.5 µM; in assay [4], 48.6 µM; in assay [5] it was above 100 µM; in [6], 20.7 µM. Besides, the TGI worked out at 67.2 µM in assay [7]; 53.1 µM in [8]; 9.91 µM in assay [9]; 29.5 µM in assay [10]; 34.6 µM in [11]; 28.5 µM in assay [12]. The TGI was 10.7 µM in [13]; above 100 µM in assay [14]; 14.2 µM in assay [15]; above 100 µM in [16]; above 67.7 µM in [17]; above 94.3 µM in [18].
Turning to `NC1=CN(CCCO)C2=N/C(=C\c3ccccc3)C(=O)N12`, the TGI in assay [1], in [2], in [3], in assay [4], in assay [5] and in assay [6] was above 100 µM in each case. Also, the TGI in assay [7], in assay [8], in assay [9], in assay [10], in assay [11] and in assay [12] was above 100 µM throughout. Also, the TGI in [13], in assay [14], in [15], in [16], in assay [17] and in assay [18] was above 100 µM each time.
With `O=C(O[C@@H](/C=C/c1ccccc1)P1(=O)N(Cc2ccccc2)[C@H]2CCCC[C@@H]2N1Cc1ccccc1)c1ccccc1`, the TGI in assay [1] is 17.9 µM; in assay [2], above 100 µM; in assay [3], above 100 µM; in assay [4] it was above 100 µM; in assay [5], above 100 µM; in [6], above 100 µM. For the same compound, the TGI in [7] amounted to 14.8 µM; in assay [8], 6.95 µM; in assay [9] it was 36 µM; in assay [10] it was 8.54 µM; in assay [11] it was 7.31 µM; in assay [12], 7.85 µM. In addition, the TGI in [13] is above 100 µM; in assay [14], above 100 µM; in [15], 21.3 µM; in assay [16], 77.1 µM; in assay [17], above 100 µM; in assay [18] it was 37 µM.
As for `OC(c1ccc(F)cc1)C(F)(F)c1nc2ccccc2o1` (stereo not given), the TGI in [1] was above 100 µM; in assay [2], above 100 µM; in [3] it was above 100 µM; in assay [4], above 100 µM; in assay [5] it was above 100 µM; in assay [6] it was 82.3 µM. Besides, the TGI in assay [7], in [8], in assay [9], in [10], in [11] and in assay [12] was above 100 µM in each case. The TGI in assay [13], in assay [14], in assay [15], in assay [16], in assay [17] and in assay [18] was above 100 µM each time.
For the compound `Cc1cc(C)n(CC(Cn2nc(C)cc2C)=C(/C(Cl)=C(/Cl)Nc2ccc([N+](=O)[O-])cc2)[N+](=O)[O-])n1`, the TGI in [1] is 2.48 µM; in [2], 14 µM; in [3] it was 14.3 µM; in assay [4] it was above 31.5 µM; in assay [5] it was 8.17 µM; in [6], 11.5 µM. The TGI in [7] was 6.55 µM; in assay [8], 25.5 µM; in [9], 8.03 µM; in assay [10], 12.7 µM; in assay [11] it was 5.12 µM; in assay [12], 12.3 µM. Moreover, the TGI in assay [13] came out at 19.8 µM; in [14] it was 20.9 µM; in [15] it was 9.27 µM; in [16] it was 14.2 µM; in [17], 17.6 µM; in assay [18], 12.5 µM.
In the case of `N=C1OC(CN2CCN(c3ccccc3)CC2)CN1C(=S)Nc1ccccc1` (stereo not given), the TGI in assay [1], in assay [2], in assay [3], in [4], in assay [5] and in [6] was above 100 µM throughout. For the same compound, the TGI in assay [7], in [8], in assay [9], in assay [10], in assay [11] and in assay [12] was above 100 µM throughout. For the same compound, the TGI in assay [13], in assay [14], in assay [15], in assay [16], in assay [17] and in assay [18] was above 100 µM each time.
Consider `O=C1CSC(/C=C/c2ccccc2)N1c1nc2cc3sc(N4C(=O)CSC4/C=C/c4ccccc4)nc3cc2s1` (stereo not given), for which the TGI in assay [1] was above 63.5 µM; in assay [2], above 100 µM; in assay [3], above 100 µM; in assay [4], above 100 µM; in assay [5], above 100 µM; in assay [6], above 100 µM. Further, the TGI in [7], in assay [8], in [9], in assay [10], in assay [11] and in assay [12] was above 100 µM in each case. Further, the TGI in assay [13] is above 100 µM; in assay [14], above 100 µM; in assay [15] it was 9.61 µM; in [16], above 100 µM; in assay [17], above 100 µM; in [18] it was above 100 µM.
As for `CC(C)OC(=O)c1ccc(CCC2=CC(=O)C=CC2=O)cc1`, the TGI was 10.9 µM in [1]; 37 µM in [2]; 27 µM in assay [3]; 25.1 µM in assay [4]; 27.5 µM in assay [5]; above 37.1 µM in assay [6]. The TGI in assay [7] stood at 27 µM; in assay [8], 23.2 µM; in assay [9] it was 31.3 µM; in [10], 26.1 µM; in assay [11] it was 24.2 µM; in [12], 25.1 µM. In addition, the TGI was 28.6 µM in assay [13]; 90.9 µM in assay [14]; 17.1 µM in assay [15]; above 88.6 µM in assay [16]; 56.8 µM in assay [17]; 22.4 µM in [18].
Take `CN(C)CCCc1cccc2[nH]c3c(c12)CN(C)CC3`: the TGI in assay [1], in assay [2], in assay [3], in [4], in [5] and in [6] was above 100 µM throughout. For the same compound, the TGI in [7], in [8], in assay [9], in [10], in [11] and in [12] was above 100 µM throughout. For the same compound, the TGI in assay [13], in assay [14], in [15], in assay [16], in assay [17] and in assay [18] was above 100 µM each time.
Consider `COc1ccccc1NC(=S)N/N=C/c1c(C)n(C)n(-c2ccccc2)c1=O`, for which the TGI in assay [1], in assay [2], in assay [3], in [4], in assay [5] and in assay [6] was above 100 µM in each case. The TGI in assay [7], in assay [8], in assay [9], in assay [10], in [11] and in assay [12] was above 100 µM throughout. Besides, the TGI in assay [13], in assay [14], in assay [15], in assay [16], in assay [17] and in [18] was above 100 µM throughout.
